US20230312556A1, “ARYLAMIDE COMPOUND, PHARMACEUTICAL COMPOSITION COMPRISING SAME, AND PREPARATION METHOD THEREFOR AND USE THEREOF” (SICHUAN KELUN-BIOTECH BIOPHARMACEUTICAL CO., LTD., priority 2020, published 2023)

Tests used:
[1] = target: mutant BRAF enzyme (BRAF-V600E) (Homo sapiens (Human), UniProt P15056, V600E); test: RAF inhibition assay (TB-PMAP2K1 kit), BRAF-V600E; assay type: biochemical; conditions: FLUORESCEIN-MAP2K1 substrate, 60 min reaction
[2] = target: mutant CRAF enzyme (RAF1 Y340D and Y341D) (Homo sapiens (Human), UniProt P04049, Y340D/Y341D); test: RAF inhibition assay (TB-PMAP2K1 kit), mutant CRAF; assay type: biochemical; conditions: FLUORESCEIN-MAP2K1 substrate, 60 min reaction
mutant CRAF enzyme (RAF1 Y340D and Y341D), sequence (P04049 whole entry Y340D/Y341D): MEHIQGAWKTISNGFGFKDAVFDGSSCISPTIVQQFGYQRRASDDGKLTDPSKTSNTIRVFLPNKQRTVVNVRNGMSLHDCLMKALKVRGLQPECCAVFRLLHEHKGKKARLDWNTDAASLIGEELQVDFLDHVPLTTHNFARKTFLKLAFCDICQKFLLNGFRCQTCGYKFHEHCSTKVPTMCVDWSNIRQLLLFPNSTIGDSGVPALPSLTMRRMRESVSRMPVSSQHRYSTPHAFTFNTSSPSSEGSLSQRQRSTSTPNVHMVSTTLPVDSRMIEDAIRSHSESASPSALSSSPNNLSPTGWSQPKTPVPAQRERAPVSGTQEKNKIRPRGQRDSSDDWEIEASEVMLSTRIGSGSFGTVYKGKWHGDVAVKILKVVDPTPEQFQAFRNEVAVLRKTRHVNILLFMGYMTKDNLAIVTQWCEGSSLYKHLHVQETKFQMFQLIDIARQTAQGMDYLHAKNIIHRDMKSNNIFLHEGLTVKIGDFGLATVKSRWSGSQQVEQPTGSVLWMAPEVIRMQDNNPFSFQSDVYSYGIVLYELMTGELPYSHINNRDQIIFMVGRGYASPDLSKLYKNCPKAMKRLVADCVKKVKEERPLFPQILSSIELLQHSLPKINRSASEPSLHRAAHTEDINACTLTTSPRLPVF

mutant BRAF enzyme (BRAF-V600E), sequence (P15056 whole entry V600E): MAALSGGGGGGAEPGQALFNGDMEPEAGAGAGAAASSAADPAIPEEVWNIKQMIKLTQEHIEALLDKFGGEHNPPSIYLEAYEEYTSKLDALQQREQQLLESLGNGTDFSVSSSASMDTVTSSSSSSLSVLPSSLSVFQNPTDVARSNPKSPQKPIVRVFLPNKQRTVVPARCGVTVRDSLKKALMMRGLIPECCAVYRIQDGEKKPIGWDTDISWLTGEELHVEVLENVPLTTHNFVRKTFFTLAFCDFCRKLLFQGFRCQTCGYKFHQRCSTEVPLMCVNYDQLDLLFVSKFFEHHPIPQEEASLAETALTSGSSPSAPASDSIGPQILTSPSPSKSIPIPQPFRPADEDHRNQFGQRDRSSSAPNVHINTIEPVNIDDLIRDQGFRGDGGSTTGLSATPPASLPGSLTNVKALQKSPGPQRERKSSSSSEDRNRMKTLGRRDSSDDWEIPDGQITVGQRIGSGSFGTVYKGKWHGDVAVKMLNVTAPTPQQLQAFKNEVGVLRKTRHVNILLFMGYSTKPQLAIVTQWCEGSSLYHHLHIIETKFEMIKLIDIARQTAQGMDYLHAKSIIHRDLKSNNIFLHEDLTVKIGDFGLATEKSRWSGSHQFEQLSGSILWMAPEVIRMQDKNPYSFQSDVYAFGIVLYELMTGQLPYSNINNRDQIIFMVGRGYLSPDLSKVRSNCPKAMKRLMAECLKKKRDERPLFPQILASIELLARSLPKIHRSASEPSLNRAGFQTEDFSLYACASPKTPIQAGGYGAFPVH

`Cc1ccc2c(Nc3cccc(Cl)c3F)nccc2c1NC(=O)c1cccc2c(N)ncnc12` [Compound 1, 4-amino-N-(1-((3-chloro-2-fluorophenyl)amino)-6-methylisoquinolin-5-yl)quinazoline-8-carboxamide] showed an IC50 [1] of 4.71 ± 2.62 nM and an IC50 [2] of 5.4 ± 0.6 nM.

`Cc1ccc2c(Cc3cccc(C(F)(F)F)c3)nccc2c1NC(=O)c1csc2c(N)ncnc12` [Compound 19, 4-amino-N-(6-methyl-1-(3-(trifluoromethyl)benzyl)isoquinolin-5-yl)thieno[3,2-d]pyrimidine-7-carboxamide] showed an IC50 [1] of 13.9 ± 3.24 nM and an IC50 [2] of 10.3 ± 2.29 nM.

Work on `Cc1ccc2c(C(=O)c3cccc(C(F)(F)F)c3)nccc2c1NC(=O)c1csc2c(N)ncnc12` [Compound 22, 4-amino-N-(6-methyl-1-(3-(trifluoromethyl)benzoyl)isoquinolin-5-yl)thieno[3,2-d]pyrimidine-7-carboxamide] yielded an IC50 [1] of 26.8 ± 6.82 nM and an IC50 [2] of 14.5 ± 9.94 nM.

Work on `Cc1ccc2c(C(O)c3cccc(C(F)(F)F)c3)nccc2c1NC(=O)c1csc2c(N)ncnc12` (centres unmarked) [Compound 23, 4-amino-N-(1-(hydroxy(3-(trifluoromethyl)phenyl)methyl)-6-methylisoquinolin-5-yl)thieno[3,2-d]pyrimidine-7-carboxamide] yielded an IC50 [1] of 13.2 ± 3.17 nM and an IC50 [2] of 3.93 ± 1 nM.

For `Cc1ccc2c(C(O)c3ccc(Cl)cc3F)nccc2c1NC(=O)c1csc2c(N)ncnc12` (centres unmarked) [Compound 28, 4-amino-N-(1-((4-chloro-2-fluorophenyl)(hydroxy)methyl)-6-methylisoquinolin-5-yl)thieno[3,2-d]pyrimidine-7-carboxamide], the IC50 [1] was 4.58 ± 0.72 nM and the IC50 [2] was 3.48 ± 0.48 nM.

For `Cc1ccc2c(C(C)Oc3ccccc3)nccc2c1NC(=O)c1csc2c(N)ncnc12` (centres unmarked) [Compound 35, 4-amino-N-(6-methyl-1-(1-phenoxyethyl)isoquinolin-5-yl)thieno[3,2-d]pyrimidine-7-carboxamide], the IC50 [1] was 50.4 ± 12.6 nM and the IC50 [2] was 15.4 ± 1.89 nM.

In the case of `Cc1ccc2c(Nc3cccc(Cl)c3)nccc2c1NC(=O)c1cccc2c(N)ncnc12` [Compound 38, 4-amino-N-(1-((3-chlorophenyl)amino)-6-methylisoquinolin-5-yl)quinazoline-8-carboxamide], the IC50 [1] is reported as 9.5 ± 2.68 nM and the IC50 [2] is reported as 10.8 ± 2.02 nM.

`Cc1ccc(Nc2nccc3c(NC(=O)c4cccc5c(N)ncnc45)c(C)ccc23)c(F)c1` [Compound 88, 4-amino-N-(1-((2-fluoro-4-methylphenyl)amino)-6-methylisoquinolin-5-yl)quinazoline-8-carboxamide] was tested, and the IC50 [1] was 11.7 ± 0.99 nM.

In the case of `Cc1ccc2c(Nc3cc(Br)ccc3F)nccc2c1NC(=O)c1cccc2c(N)ncnc12` [Compound 91, 4-amino-N-(1-((5-bromo-2-fluorophenyl)amino)-6-methylisoquinolin-5-yl)quinazoline-8-carboxamide], the IC50 [1] is reported as 20.9 ± 2.81 nM.

`Cc1ccc2c(Nc3c(F)c(F)cc(F)c3F)nccc2c1NC(=O)c1cccc2c(N)ncnc12` [Compound 95, 4-amino-N-(6-methyl-1-((2,3,5,6-tetrafluorophenyl)amino)isoquinolin-5-yl)quinazoline-8-carboxamide] showed an IC50 [1] of 13.9 ± 1.48 nM.

`Cc1ccc2c(Nc3cccc(OCCN4CCOCC4)c3F)nccc2c1NC(=O)c1cccc2c(N)ncnc12` [Compound 98, 4-amino-N-(1-((2-fluoro-3-(2-morpholinoethoxy)phenyl)amino)-6-methylisoquinolin-5-yl)quinazoline-8-carboxamide] gave an IC50 [1] of 21.9 ± 6.38 nM.

Molecule `Cc1ccc2c(Nc3cccc(Cl)c3F)nccc2c1NC(=O)c1cn(C)c2c(N)ncnc12` [Compound 101, 4-amino-N-(1-((3-chloro-2-fluorophenyl)amino)-6-methylisoquinolin-5-yl)-5-methyl-5H-pyrrolo[3,2-d]pyrimidine-7-carboxamide] has an IC50 [1] of 5.58 ± 0.57 nM.

With `Cc1ccc2c(Nc3cccc(Cl)c3F)ncnc2c1NC(=O)c1cccc2c(N)ncnc12` [Compound 102, 4-amino-N-(4-((3-chloro-2-fluorophenyl)amino)-7-methylquinazolin-8-yl)quinazoline-8-carboxamide] the IC50 [1] was 12.4 ± 3.05 nM.
